Test results reported in patent publication US10563272B2, “Compositions comprising Metarhizium fungi and use thereof as a pesticide” (Cotton Research and Development Corporation, priority 2015, dated 2020).

Key:
[1] = tested on: Bemisia tabaci b-type adults and nymphs; experiment: Rate trial on Bollgard II cotton, Norwood 2011-2012 (Example 11): silverleaf whiteflies; type: in vivo; details: DAT 511 250 mL, 500 mL, 1 L/ha; Pyriproxyfen 500 mL/ha; P<0.001
Experimental: This trial was conducted on an irrigated Bollgard II® cotton crop on a commercial cotton farm at Norwood near Moree, NSW, in 2011-2012.
(§1) The following treatments were evaluated against Bemisia tabaci b-type adults and nymphs: • 1. 250 mL/ha DAT 511 spore in oil (1×10^7 spores/ml); • 2. 500 mL/ha DAT 511 spore in oil (1×10^7 spores/ml); • 3. 1 L/ha DAT 511 spore in oil (1×10^7 spores/ml); • 4. 500 mL/ha Pyriproxyfen (conventional insecticide); and • 5. Unsprayed (control).
(§2) The treatment plots were arranged in a randomized complete block design with three replicates per treatment. Each replicated plot measured 40 m wide (40 rows) and 90 m long.
Foliar applications of each treatment were made on 28 Feb. and 20 Mar. 2012. […] On each sampling date, 20 plants from each replicate were randomly selected and B. tabaci adults on one leaf from the 5th node below the terminal of each plant were counted. […]
(§3) In the case of nymphs, one leaf from the 5th node below the terminal of each of the 20 plants was cut, removed and carefully placed individually in a plastic bag. The plastic bags containing the leaves were taken to the laboratory and the B. tabaci nymphs were counted under a binocular microscope. Data of both adults and nymphs were expressed as numbers per leaf per treatment.

[2] = tested on: Bemisia tabaci b-type adults and nymphs; experiment: Rate trial on Bollgard cotton, Cooinda St George 2011-2012 (Example 13): silverleaf whiteflies; type: in vivo; details: P<0.001; FIG. 50
Experimental: This trial was conducted on an irrigated Bollgard cotton crop on a commercial cotton farm at Cooinda, St George, Queensland, in 2011-2012.
as §1, §2
Foliar applications of each treatment were made on 12 Mar. and 26 Mar. 2012. […] On each sampling date, 20 plants from each replicate were randomly selected and B. tabaci adults on one leaf from the 5th node below the terminal of each plant were counted. […]
as §3

## CC(COc1ccc(Oc2ccccc2)cc1)Oc1ccccn1 (centres unmarked) [Pyriproxyfen]
[1]
  SLW adults and nymphs versus the unsprayed: fewer
[2]
  silverleaf whitefly adults and nymphs versus unsprayed plots: Significantly fewer
